Experimental data as given in US11286459B2, “Cell culturing method using nucleic acid-containing medium” (Astellas Pharma Inc., priority 2015, dated 2022).

Tests used:
Format in all cases: cell-based, Chinese hamster
[1] = system: IgG-expressing CHO cell line (anti-human α9 antibody RY9A2v12 (M34L) 012); assay: Fed-batch culture with deoxyuridine, thymidine and/or deoxycytidine (Example 4); conditions: 25 mg/L
Method: Using a culture medium for animal cells as a cell growth medium, fed-batch culture of an IgG-expressing CHO cell line (a CHO cell line in which an anti-human α9 antibody ([…]) 012) had been recombinantly expressed, as described in WO 2009/088064) was started at an initial viable cell density of 1×10^6 cells/mL under the conditions of 36.5° C. and 5% CO2. At the start of culture, deoxyuridine, thymidine, and/or deoxycytidine was/were each added to a final concentration of 0 or 25 mg/L according to Table 2. The culture was continued until day 14 of culture while a feed culture medium was added everyday from day 2 of culture. Sampling was done at appropriate timings. Viable cell densities were measured by trypan blue exclusion method, and antibody concentrations were measured by protein A column HPLC. […] [table]

[2] = system: Fab′ fragment-expressing CHO cell line (anti-human NGF antibody Fab′ fragment 1-15 (N52D-A)-Fab′); assay: Fed-batch culture, comparison with uridine and thymidine (Example 9); conditions: 25 mg/L of each added component
Method: Using a culture medium for animal cells as a cell growth medium, fed-batch culture of a Fab′ fragment-expressing CHO cell line (a CHO cell line in which an anti-human NGF antibody Fab′ fragment (1-15 (N52D-A)-Fab′) had been expressed, as described in WO 2013/022083) was started at an initial viable cell density of 1×10^6 cells/mL under the conditions of 36.5° C. and 5% CO2. At the start of culture, deoxyuridine, thymidine and deoxycytidine were each added to a final concentration of 25 mg/L. To provide comparative conditions, uridine and thymidine were added, at the start of culture, at concentrations of 7 mg/L and 0.24 mg/L, respectively (these concentrations are the same as those described in Examples of EP 1818392 B1). The culture was continued under each of the different conditions described above until day 14 of culture while a feed medium was added everyday from day 2 of culture. Sampling was done at appropriate timings. Viable cell densities were measured by trypan blue exclusion method, and antibody concentrations were measured by reverse-phase HPLC.

[3] = system: IgG-expressing CHO cell line (anti-human TSLP receptor antibody, fully human T7-27); assay: Fed-batch culture, comparison with uridine and thymidine (Example 7); conditions: 25 mg/L of each added component
Method: (§1) Using a culture medium for animal cells as a cell growth medium, fed-batch culture of an IgG-expressing CHO cell line (a CHO cell line in which an anti-human TSLP receptor antibody (fully human T7-27) had been recombinantly expressed, as described in WO 2015/020193) was started at an initial viable cell density of 1×10^6 cells/mL under the conditions of 36.5° C. and 5% CO2. At the start of culture, deoxyuridine, thymidine and deoxycytidine were each added to a final concentration of 25 mg/L. To provide comparative conditions, uridine (U) and thymidine were added, at the start of culture, at concentrations of 7 mg/L and 0.24 mg/L, respectively (these concentrations are the same as those described in Examples of EP 1818392 B1). The culture was continued under each of the different conditions described above until day 14 of culture while a feed culture medium was added everyday from day 2 of culture. Sampling was done at appropriate timings. Viable cell densities were measured by trypan blue exclusion method, and antibody concentrations were measured by protein A column HPLC.

[4] = system: IgG-expressing CHO cell line (anti-human TSLP receptor antibody, fully human T7-27); assay: Fed-batch culture with deoxyuridine in the presence of thymidine and deoxycytidine (Example 2); conditions: for highest viable cell density observed during the 14 days of culture: at start of culture; for antibody concentration on the final day of culture: day 14
Method: Using a culture medium for animal cells as a cell growth medium, fed-batch culture of an IgG-expressing CHO cell line (a CHO cell line in which an anti-human TSLP receptor antibody (fully human T7-27) had been recombinantly expressed, as described in WO 2015/020193) was started at an initial viable cell density of 1×10^6 cells/mL under the conditions of 36.5° C. and 5% CO2. At the start of culture, thymidine and deoxycytidine hydrochloride (in the working examples given in the subject specification, deoxycytidine hydrochloride was actually used as deoxycytidine, and the concentrations of deoxycytidine hydrochloride are expressed by using the converted concentration value of deoxycytidine from deoxycytidine hydrochloride.) were each added to cultures to a final concentration of 25 mg/L, and deoxyuridine was added to a final concentration of 10, 25, 40, 55, 70 or 85 mg/L. The culture was continued until day 14 of culture while a feed culture medium was added everyday from day 2 of culture. Sampling was done at appropriate timings. Viable cell densities were measured by trypan blue exclusion method, and antibody concentrations were measured by protein A column HPLC.

[5] = system: IgG-expressing CHO cell line (anti-human TSLP receptor antibody, fully human T7-27); assay: Fed-batch culture with deoxyuridine, thymidine and deoxycytidine added on day 2 (Example 3); conditions: 25 mg/L of each added component
Method: Using a culture medium for animal cells as a cell growth medium, fed-batch culture of an IgG-expressing CHO cell line (a CHO cell line in which an anti-human TSLP receptor antibody (fully human T7-27) had been recombinantly expressed, as described in WO 2015/020193) was started at an initial viable cell density of 1×10^6 cells/mL under the conditions of 36.5° C. and 5% CO2. On day 2 of culture, deoxyuridine was added to a final concentration of 25 mg/L, and thymidine and deoxycytidine were each added to cultures to a final concentration of 0 or 25 mg/L according to Table 1. The culture was continued until day 14 of culture while a feed culture medium was added everyday from day 2 of culture. Sampling was done at appropriate timings. Viable cell densities were measured by trypan blue exclusion method, and antibody concentrations were measured by protein A column HPLC. […] In contrast, in the case of addition of deoxyuridine in the presence of 25 mg/L each of thymidine and deoxycytidine (dU-dT-dC), the viable cell density, cell viability, and antibody concentration on the final day of the 14 days of culture were 12×10^6 cells/mL, approximately 78%, and 5.8 g/L, respectively; these values were higher than in the cases of addition of dU, addition of deoxyuridine and deoxycytidine (dU-dC), and addition of deoxyuridine and thymidine (dU-dT). […] [table]

[6] = system: IgG-expressing CHO cell line (anti-human TSLP receptor antibody, fully human T7-27); assay: Fed-batch culture with deoxyuridine added on day 2 (Example 1); trypan blue exclusion, protein A column HPLC
Method: Using a culture medium for animal cells as a cell growth medium, fed-batch culture of an IgG-expressing CHO cell line (a CHO cell line in which an anti-human thymic stromal lymphopoietin (TSLP) receptor antibody (fully human T7-27) had been recombinantly expressed, as described in WO 2015/020193) was started at an initial viable cell density of 1×10^6 cells/mL under the conditions of 36.5° C. and 5% CO2. On day 2 of culture, deoxyuridine was added to cultures to a final concentration of 10, 25, 50, 100 or 200 mg/L. The culture was continued until day 14 of culture while a feed medium was added everyday from day 2 of culture. Sampling was done at appropriate timings. Viable cell densities were measured by trypan blue exclusion study, and antibody concentrations were measured by protein A column HPLC. […] It was also observed that even addition of […] deoxyuridine enhancedantibody production during the cell culture until day 10 to day 12.

[7] = system: IgG-expressing CHO cell line (anti-human α9 antibody RY9A2v12 (M34L) 012); assay: Fed-batch culture, comparison with uridine and thymidine (Example 8); conditions: 25 mg/L of each added component
Method: as §1, with “α9” for “TSLP receptor”, “([…]) 012)” for “(fully human T7-27)”, “2009/088064)” for “2015/020193)”, “uridine” for “uridine (U)”, “feed” for “feed culture”, “HPLC. […] In contrast, the highest viable cell densities were approximately 21×10^6 cells/mL in the case of addition of 25 mg/L deoxyuridine (dU25 mg/L), and about 31×10^6 cells/mL in the case of addition of 25 mg/L each of deoxyuridine, thymidine and deoxycytidine (dUdTdC25 mg/L); these values were higher than control.” for “HPLC.”

[8] = system: IgG-expressing CHO cell line (anti-human α9 integrin antibody RY9A2v12 (M34L) 012); assay: Batch culture with deoxyuridine (Example 6)
Method: Using a culture medium for animal cells as a cell growth medium, batch culture of an IgG-expressing CHO cell line (a CHO cell line in which an anti-human α9 integrin antibody (hereinafter referred to as “anti-human α9 antibody”) (RY9A2v12 (M34L) 012) had been recombinantly expressed, as described in WO 2009/088064) was started at an initial viable cell density of 0.3×10^6 cells/mL under the conditions of 36.5° C. and 5% CO2. At the start of culture, deoxyuridine was added to cultures to a final concentration of 5, 25, 100, 500 or 1000 mg/L, and then the culture was continued for 5 days. Sampling was done at appropriate timings. Viable cell densities were measured bytrypan blue exclusion method, and antibody concentrations were measured by protein A column HPLC.

[9] = 10 mg/L deoxyuridine with 25 mg/L each thymidine and deoxycytidine
[10] = 25 mg/L deoxyuridine with 25 mg/L each thymidine and deoxycytidine

**Q.** How did the “effects when added alone (viable cell density, antibody concentration)” value (“effects when added alone” for short) [1] turn out when `Nc1ccn([C@H]2C[C@H](O)[C@@H](CO)O2)c(=O)n1` [deoxycytidine] was run?
**A.** The value was “no effect”.

**Q.** With `O=c1ccn([C@H]2C[C@H](O)[C@@H](CO)O2)c(=O)[nH]1` [deoxyuridine] as the compound, how does the “highest viable cell density observed during the 14 days of culture” value ([2]; at start of culture, control approximately 14) read?
**A.** Its value is “approximately 26 ×10^6 cells/mL”.

**Q.** And the “protein concentration on the final day of culture” value ([2]; day 14, control approximately 2.2)?
**A.** The value was “approximately 3.1 g/L”.

**Q.** What about the “highest viable cell density observed during the 14 days of culture” value ([3]; at start of culture, control approximately 12) of the same compound?
**A.** Its value is “approximately 21 ×10^6 cells/mL”.

**Q.** What about the “antibody concentration on the final day of culture” value ([3]; day 14, control approximately 2.9) of the same compound?
**A.** Its value is “approximately 4.6 g/L”.

**Q.** And the “highest viable cell density observed during the 14 days of culture” value [4, 9]?
**A.** Its value is “about 27 ×10^6 cells/mL”.

**Q.** What about the “antibody concentration on the final day of culture” value [4, 9] of the same compound?
**A.** The value was 5.9 g/L.

**Q.** What about the “highest viable cell density observed during the 14 days of culture” value [4, 10] of the same compound?
**A.** The value was “approximately 32 ×10^6 cells/mL”.

**Q.** And the “antibody concentration on the final day of culture” value [4, 10]?
**A.** The value was 6.8 g/L.

**Q.** What about the “enhancing effects on cell growth and antibody production” value ([4]; deoxyuridine 25 mg/L or higher in the presence of thymidine and deoxycytidine, versus 10 mg/L) of the same compound?
**A.** The value was “higher enhancing effects on cell growth and antibody production”.

**Q.** What about the “effects when added alone” value [1] of the same compound?
**A.** The value was “produce effects”.

**Q.** What about the “antibody concentration on the final day of the 14 days of culture” value [5] of the same compound?
**A.** The value was 5.1 g/L.

**Q.** What about the “cell viability on the final day of the 14 days of culture” value [5] of the same compound?
**A.** The value was “approximately 61%”.

**Q.** What about the “viable cell density on the final day of the 14 days of culture” value [5] of the same compound?
**A.** Its value is “approximately 7.6 ×10^6 cells/mL”.

**Q.** And the “antibody production during the cell culture until day 10 to day 12” value ([6]; 10 mg/L deoxyuridine)?
**A.** The value was “enhanced”.

**Q.** And the “highest viable cell density observed during the 14 days of culture” value ([6]; 25 mg/L deoxyuridine added on day 2, control about 10)?
**A.** Its value is “about 18 ×10^6 cells/mL”.

**Q.** What about the “antibody concentration on the final day of culture” value ([6]; 25 mg/L deoxyuridine added on day 2, day 14, control 3.3) of the same compound?
**A.** Its value is 5.5 g/L.

**Q.** And the “response to deoxyuridine addition (cell growth and antibody production)” value ([6]; any concentration tested from 10 mg/L to 200 mg/L)?
**A.** Its value is “enhanced cell growth and antibody production”.

**Q.** And the “highest viable cell density observed during the 14 days of culture” value ([7]; at start of culture, control about 16)?
**A.** Its value is “approximately 21 ×10^6 cells/mL”.

**Q.** And the “antibody concentrations during culture versus control” value ([7]; FIG. 16)?
**A.** Its value is “higher levels than control”.

**Q.** What about the “highest viable cell density observed during the 5 days of culture” value ([8]; 100 mg/L deoxyuridine at start of batch culture, control approximately 7) of the same compound?
**A.** The value was “approximately 10 ×10^6 cells/mL”.

**Q.** What about the “effect on cell growth” value ([8]; any concentration tested from 5 mg/L to 500 mg/L) of the same compound?
**A.** The value was “enhancing effect on cell growth”.

**Q.** With `Cc1cn([C@H]2C[C@H](O)[C@@H](CO)O2)c(=O)[nH]c1=O` [thymidine] as the compound, how does the “effects when added alone” value [1] read?
**A.** Its value is “produce effects”.
